Assay results from patent publication US20040127504A1, “Benzimidazoles that are useful in treating sexual dysfunction” (priority 2002, published 2004).

test system: not given; settings: not given

With Oc1ccc(N2CCN(Cc3nc4ccccc4[nH]3)CC2)nc1 [6-[4-(1H-benzimidazol-2-ylmethyl)piperazin-1-yl]pyridin-3-ol] as the molecule, how does the melting point read?
The melting point was 144 to 145 °C.

Which melting point does the source give for c1cnc(N2CCN(Cc3nc4ccccc4[nH]3)CC2)nc1 [Example 2, 2-[(4-pyrimidin-2-ylpiperazin-1-yl)methyl]-1H-benzimidazole] here?
The melting point was 198 to 200 °C.

Which melting point does the source give for N#Cc1cccnc1N1CCN(Cc2nc3ccccc3[nH]2)CC1 [Example 4, 2-[4-(1H-benzimidazol-2-ylmethyl)piperazin-1-yl]nicotinonitrile] here?
The melting point was 208 to 210 °C.

Which melting point does the source give for c1ccc2[nH]c(CN3CCN(c4nccs4)CC3)nc2c1 [Example 7, 2-{[4-(1,3-thiazol-2-yl)piperazin-1-yl]methyl}-1H-benzimidazole] here?
The melting point was 203 to 205 °C.

For O=C(N1CCCC1)n1c(CN2CCN(c3ccccn3)CC2)nc2ccccc21 [Example 9, 2-[(4-pyridin-2-ylpiperazin-1-yl)methyl]-1-(pyrrolidin-1-ylcarbonyl)-1H-benzimidazole], which melting point is on record?
Its melting point is 120 to 121 °C.

With CN(C)C(=O)n1c(CN2CCN(c3ccccn3)CC2)nc2ccccc21 [Example 10, N,N-dimethyl-2-[(4-pyridin-2-ylpiperazin-1-yl)methyl]-1H-benzimidazole-1-carboxamide] as the molecule, how does the melting point read?
The melting point was 174 to 176 °C.

With N#Cc1ccccc1N1CCN(Cc2nc3ccccc3[nH]2)CC1 [Example 12, 2-[4-(1H-benzimidazol-2-ylmethyl)piperazin-1-yl]benzonitrile] as the molecule, how does the melting point read?
Its melting point is 236 to 237 °C.

Which melting point does the source give for Clc1ccccc1N1CCN(Cc2nc3ccccc3[nH]2)CC1 [Example 13, 2-{[4-(2-chlorophenyl)piperazin-1-yl]methyl}-1H-benzimidazole] here?
The melting point was 245 to 246 °C.

Which melting point does the source give for Fc1ccccc1N1CCN(Cc2nc3ccccc3[nH]2)CC1 [Example 14, 2-{[4-(2-fluorophenyl)piperazin-1-yl]methyl}-1H-benzimidazole] here?
Its melting point is 262 to 264 °C.

For Oc1ccc(N2CCN(Cc3nc4ccccc4[nH]3)CC2)cc1 [Example 17, 4-[4-(1H-benzimidazol-2-ylmethyl)piperazin-1-yl]phenol], which melting point is on record?
The melting point was 206 to 209 °C.

For CSc1ccccc1N1CCN(Cc2nc3ccccc3[nH]2)CC1 [Example 18, 2-({4-[2-(methylthio)phenyl]piperazin-1-yl}methyl)-1H-benzimidazole], which melting point is on record?
The melting point was 214 to 216 °C.

For Oc1ccccc1N1CCN(Cc2nc3ccccc3[nH]2)CC1 [Example 20, 2-[4-(1H-benzimidazol-2-ylmethyl)piperazin-1-yl]phenol], which melting point is on record?
Its melting point is 208 to 216 °C.

Which melting point does the source give for CC1CN(c2ccccn2)CCN1Cc1nc2ccccc2[nH]1 (centres unmarked) [Example 24, 2-[(2-methyl-4-pyridin-2-ylpiperazin-1-yl)methyl]-1H-benzimidazole] here?
The melting point was 207 to 209 °C.

For C[C@H]1CN(c2ccccn2)CCN1Cc1nc2ccccc2[nH]1 [Example 25, 2-{[(2S)-2-methyl-4-pyridin-2-ylpiperazin-1-yl]methyl}-1H-benzimidazole], which melting point is on record?
Its melting point is 149 to 151 °C.

For C[C@@H]1CN(c2ccccn2)CCN1Cc1nc2ccccc2[nH]1 [Example 26, 2-{[(2R)-2-methyl-4-pyridin-2-ylpiperazin-1-yl]methyl}-1H-benzimidazole], which melting point is on record?
The melting point was 151 to 153 °C.

Which melting point does the source give for Fc1cccnc1N1CCN(Cc2nc3ccccc3[nH]2)CC1 [Example 28, 2-{[4-(3-fluoropyridin-2-yl)piperazin-1-yl]methyl}-1H-benzimidazole] here?
The melting point was 210 to 212 °C.

test system: Male Fitch ferrets; set-up: species or system ferret; settings: in vivo, sc
Method: Male Fitch ferrets (body weights 1.0-1.5 kg) were obtained from Marshall Farms. Ferrets were fasted overnight before experimentation. Apomorphine or a compound of the present invention was administrated subcutaneously; animals were placed individually in observation cages and the drug-induced emesis and signs of nausea were determined (by direct observation) for a period of 90 minutes following drug injection. Nausea was characterized by behaviors such as licking, gagging, backing, head burying, and intense abdominal grooming. Emesis was usually preceded by these behaviors and was characterized by rhythmic abdominal contractions which were associated with vomiting or retching movement.
Sterile saline was used as vehicle. Six animals were used per dose.

For c1ccc(N2CCN(Cc3nc4ccccc4[nH]3)CC2)nc1 [2-[(4-pyridin-2-ylpiperazin-1-yl)methyl]-1H-benzimidazole], which “induction of emesis in ferrets” value is on record?
The value was “did not induce emesis”.
